A word on the IC50: it is the concentration that inhibits the measured activity by half. Higher therefore signals lower potency.

One data set addresses CYP17A1 (Homo sapiens (Human), UniProt P05093). Kind of data set: CYP17A1 inhibition, CYP17A1 bactosomes, progesterone substrate, LC-MS/MS. The format is biochemical. As to conditions: for inhibitory potency of CYP17A1, level in words: Table 2; for IC50: 0.1 μM progesterone, 20 min, 37° C.
The target of a further data set is CYP19A1 (Homo sapiens (Human), UniProt P11511). Kind of data set: CYP19A1 inhibition, CYP19/MFC High Throughput Inhibitor Screen Kit, fluorescence. The settings on record: for IC50 values against CYP19A1, potency level in words: Table 2. The class given is biochemical. Here is the method:
Test compounds and control inhibitors were prepared as stocks in either Acetonitrile or DMSO from the solid compound. Compounds were serially diluted in ½ log steps in the same solvent. CYP19A1 inhibition experiments were performed using the CYP19/MFC High Throughput Inhibitor Screen Kit (Corning). Test compounds were tested in seven concentrations: […] CYP19A1 reactions were performed in black 96 well-plates (Greiner) according to the manufacturer's instructions. […] Final organic solvent concentrations were either 4% (v/v) acetonitrile or 0.5% (v/v) Dimethyl sulfoxide. The plates were covered with self-adhesive film lids and incubated for 10 minutes at 37° C. Reactions were terminated by the addition of 75 μl Stop Solution (100 mM Tris base in acetonitrile: MilliQ water (80:20). […] The CYP activities for each test compound/positive control inhibitor at each concentration were converted to % of control activity (CA). The LC-MS/MS peak responses (CYP metabolite peak area/internal standard peak area) for each test compound or positive control inhibitor were used and the response for each sample was expressed as a percentage of an uninhibited control (DMSO incubation).

The nature of another data set: Solubility in DMSO. The class given is physicochemical.
Data set [1] in a line: Toxicity studies on the molecules in Table 2.
The subject of another data set is CYP17A1 and CYP19A1. Kind of data set: Classification as Dual Inhibitor (inhibitor of both CYP17A1 and CYP19A1). As to conditions: inhibitors of both CYP17A1 and CYP19A1.
Another data set addresses CYP1A2 (Homo sapiens (Human), UniProt P05177). Kind of data set: CYP inhibition against major 5 human liver CYPs in E. coli CYPEX membranes: CYP1A2 (tacrine). The class given is in vitro ADME. As to conditions: bactosome mix, 10 min, 37° C. On the procedure:
(§1) Test compounds and control inhibitors were prepared as stocks in DMSO from the solid compound. The stocks were diluted in 0.1 M phosphate buffer (pH 7.4) at four times the final concentration prior to addition into the incubation tubes. The final DMSO concentration was 1%. […] Catalogue number CYP/XG001, Batch XG001001). Selective and FDA accepted substrates for each isoform were used at a concentration around the Km for each substrate. Activity of each isoform was assessed by measuring the appearance of an isoform-specific metabolite. A cocktail of 5 isoform-specific inhibitors was used as a positive control. […] Reactions were stopped by addition of 100 μl MeOH/1 μM Tolbutamide (internal standard). The quenched samples were mixed thoroughly and protein precipitated at −20° C. overnight. Samples were centrifuged at 2,500×g (3,400 rpm) for 20 minutes, 4° C. The supernatants were transferred to a 96 well-plate and analysed by LC-MS/MS. […] The LC-MS/MS peak responses (CYP metabolite peak area/internal standard peak area) for each test compound or positive control inhibitor were used and the response for each sample was expressed as a percentage of an uninhibited control (DMSO incubation).

The target in another data set is CYP2C9 (Homo sapiens (Human), UniProt P11712). The experiment in a line: CYP inhibition against major 5 human liver CYPs in E. coli CYPEX membranes: CYP2C9 (diclofenac). The class given is in vitro ADME. As to conditions: bactosome mix, 10 min, 37° C.
In another data set the target is CYP2C19 (Homo sapiens (Human), UniProt P33261). The experiment in a line: CYP inhibition against major 5 human liver CYPs in E. coli CYPEX membranes: CYP2C19 ((S)-mephenytoin). The class given is in vitro ADME. As to conditions: bactosome mix, 10 min, 37° C. On the procedure:
as §1

The target of another data set is CYP2D6 (Homo sapiens (Human), UniProt P10635). The experiment in a line: CYP inhibition against major 5 human liver CYPs in E. coli CYPEX membranes: CYP2D6 (bufuralol). The format is in vitro ADME. As to conditions: bactosome mix, 10 min, 37° C. Here is the method: Test compounds and control inhibitors were prepared as stocks in DMSO from the solid compound. The stocks were diluted in 0.1 M phosphate buffer (pH 7.4) at four times the final concentration prior to addition into the incubation tubes. The final DMSO concentration was 1%. […] Catalogue number CYP/XG001, Batch XG001001). Selective and FDA accepted substrates for each isoform were used at a concentration around the Km for each substrate. Activity of each isoform was assessed by measuring the appearance of an isoform-specific metabolite. A cocktail of 5 isoform-specific inhibitors was used as a positive control. […] Reactions were stopped by addition of 100 μl MeOH/1 μM Tolbutamide (internal standard). The quenched samples were mixed thoroughly and protein precipitated at −20° C. overnight. Samples were centrifuged at 2,500×g (3,400 rpm) for 20 minutes, 4° C. The supernatants were transferred to a 96 well-plate and analysed by LC-MS/MS. The following LC-MS/MS conditions were used to analyse the 5CYP inhibition samples: • Column: Waters ACE Excel C18-AR, 50×2.1 mm, 2 μm • Mobile phase A: MilliQ water+0.1% formic acid • Mobile phase B: Methanol+0.1% formic acid • Flow rate: 0.8 ml/min The CYP activities for each test compound/positive control inhibitor at each concentration were converted to % of control activity (CA). The LC-MS/MS peak responses (CYP metabolite peak area/internal standard peak area) for each test compound or positive control inhibitor were used and the response for each sample was expressed as a percentage of an uninhibited control (DMSO incubation).

A further data set deals with CYP3A4 (Homo sapiens (Human), UniProt P08684). The experiment in a line: CYP inhibition against major 5 human liver CYPs in E. coli CYPEX membranes: CYP3A4 (midazolam). The format is in vitro ADME. As to conditions: bactosome mix, 10 min, 37° C. Here is the method:
as §1

In data set [2] the test system is CYP1A2, CYP2C9, CYP2C19, CYP2D6, and CYP3A4. The experiment in a line: Summary of inhibition of metabolic CYP450 isoforms (5 CYP panel). The class given is in vitro ADME, human. The settings on record: Table 2.

Structures are written as SMILES.

CYP2D6, sequence (P10635 whole entry, canonical isoform): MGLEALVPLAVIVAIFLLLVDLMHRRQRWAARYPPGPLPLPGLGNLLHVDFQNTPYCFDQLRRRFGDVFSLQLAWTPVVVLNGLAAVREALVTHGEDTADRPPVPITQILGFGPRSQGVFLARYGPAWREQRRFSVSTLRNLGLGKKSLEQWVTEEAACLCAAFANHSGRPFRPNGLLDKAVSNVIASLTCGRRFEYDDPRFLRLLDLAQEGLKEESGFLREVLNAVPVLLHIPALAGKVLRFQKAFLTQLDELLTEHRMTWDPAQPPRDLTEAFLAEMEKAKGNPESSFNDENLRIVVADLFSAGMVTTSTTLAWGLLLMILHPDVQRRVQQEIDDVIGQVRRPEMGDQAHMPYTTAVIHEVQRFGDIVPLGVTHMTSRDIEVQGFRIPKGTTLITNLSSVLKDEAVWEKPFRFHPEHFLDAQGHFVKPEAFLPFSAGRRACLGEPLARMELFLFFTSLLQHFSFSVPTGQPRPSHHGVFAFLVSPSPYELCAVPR
CYP19A1, sequence (P11511 whole entry): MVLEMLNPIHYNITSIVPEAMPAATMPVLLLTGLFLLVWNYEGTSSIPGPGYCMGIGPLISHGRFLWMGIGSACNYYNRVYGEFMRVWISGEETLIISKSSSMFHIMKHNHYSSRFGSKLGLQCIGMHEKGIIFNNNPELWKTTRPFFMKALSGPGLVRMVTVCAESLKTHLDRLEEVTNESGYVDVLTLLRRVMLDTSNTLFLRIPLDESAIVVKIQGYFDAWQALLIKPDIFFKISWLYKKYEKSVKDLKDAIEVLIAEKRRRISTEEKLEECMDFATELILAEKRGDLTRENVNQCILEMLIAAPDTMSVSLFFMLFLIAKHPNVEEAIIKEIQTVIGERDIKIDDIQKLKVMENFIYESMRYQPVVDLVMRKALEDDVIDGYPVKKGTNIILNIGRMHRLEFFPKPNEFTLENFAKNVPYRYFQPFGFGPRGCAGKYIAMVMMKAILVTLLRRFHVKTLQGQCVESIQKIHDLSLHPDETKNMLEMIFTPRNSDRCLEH
CYP17A1, sequence (P05093 whole entry): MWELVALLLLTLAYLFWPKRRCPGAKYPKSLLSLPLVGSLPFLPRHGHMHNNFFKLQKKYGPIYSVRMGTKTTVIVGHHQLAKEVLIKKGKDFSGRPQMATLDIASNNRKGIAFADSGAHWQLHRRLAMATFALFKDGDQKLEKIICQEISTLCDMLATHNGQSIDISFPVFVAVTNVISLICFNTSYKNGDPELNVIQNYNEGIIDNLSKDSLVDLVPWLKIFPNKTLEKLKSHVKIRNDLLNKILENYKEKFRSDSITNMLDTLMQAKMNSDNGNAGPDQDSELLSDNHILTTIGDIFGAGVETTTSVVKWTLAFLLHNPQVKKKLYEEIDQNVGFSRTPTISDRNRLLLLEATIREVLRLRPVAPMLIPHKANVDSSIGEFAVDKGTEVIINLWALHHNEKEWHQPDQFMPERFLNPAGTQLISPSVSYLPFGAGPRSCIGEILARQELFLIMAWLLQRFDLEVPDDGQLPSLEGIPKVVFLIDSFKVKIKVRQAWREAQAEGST
CYP3A4, sequence (P08684 whole entry): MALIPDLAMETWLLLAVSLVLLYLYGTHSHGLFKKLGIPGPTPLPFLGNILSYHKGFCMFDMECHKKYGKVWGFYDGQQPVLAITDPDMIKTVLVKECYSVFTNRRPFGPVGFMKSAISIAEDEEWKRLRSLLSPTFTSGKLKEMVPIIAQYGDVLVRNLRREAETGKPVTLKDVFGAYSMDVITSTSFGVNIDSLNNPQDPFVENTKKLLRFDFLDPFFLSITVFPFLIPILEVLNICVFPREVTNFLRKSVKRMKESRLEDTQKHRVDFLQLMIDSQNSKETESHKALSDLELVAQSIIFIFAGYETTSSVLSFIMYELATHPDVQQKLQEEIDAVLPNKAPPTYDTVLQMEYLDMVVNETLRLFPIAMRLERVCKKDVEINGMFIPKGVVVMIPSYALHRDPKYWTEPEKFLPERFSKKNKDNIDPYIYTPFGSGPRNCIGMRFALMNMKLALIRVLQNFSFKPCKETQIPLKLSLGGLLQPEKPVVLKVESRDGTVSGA
CYP2C19, sequence (P33261 whole entry): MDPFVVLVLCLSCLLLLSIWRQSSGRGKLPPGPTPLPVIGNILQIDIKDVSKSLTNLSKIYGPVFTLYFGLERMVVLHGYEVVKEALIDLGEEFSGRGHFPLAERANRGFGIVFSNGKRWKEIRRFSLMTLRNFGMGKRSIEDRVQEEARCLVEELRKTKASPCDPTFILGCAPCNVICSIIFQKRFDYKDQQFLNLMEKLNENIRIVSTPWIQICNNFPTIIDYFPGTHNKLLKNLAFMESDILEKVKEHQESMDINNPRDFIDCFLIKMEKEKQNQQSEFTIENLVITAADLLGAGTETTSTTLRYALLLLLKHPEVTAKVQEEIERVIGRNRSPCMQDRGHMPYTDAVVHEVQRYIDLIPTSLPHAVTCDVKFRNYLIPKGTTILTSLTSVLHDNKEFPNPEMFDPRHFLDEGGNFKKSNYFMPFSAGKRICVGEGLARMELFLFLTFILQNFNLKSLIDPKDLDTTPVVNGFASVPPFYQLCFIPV
CYP1A2, sequence (P05177 whole entry, canonical isoform): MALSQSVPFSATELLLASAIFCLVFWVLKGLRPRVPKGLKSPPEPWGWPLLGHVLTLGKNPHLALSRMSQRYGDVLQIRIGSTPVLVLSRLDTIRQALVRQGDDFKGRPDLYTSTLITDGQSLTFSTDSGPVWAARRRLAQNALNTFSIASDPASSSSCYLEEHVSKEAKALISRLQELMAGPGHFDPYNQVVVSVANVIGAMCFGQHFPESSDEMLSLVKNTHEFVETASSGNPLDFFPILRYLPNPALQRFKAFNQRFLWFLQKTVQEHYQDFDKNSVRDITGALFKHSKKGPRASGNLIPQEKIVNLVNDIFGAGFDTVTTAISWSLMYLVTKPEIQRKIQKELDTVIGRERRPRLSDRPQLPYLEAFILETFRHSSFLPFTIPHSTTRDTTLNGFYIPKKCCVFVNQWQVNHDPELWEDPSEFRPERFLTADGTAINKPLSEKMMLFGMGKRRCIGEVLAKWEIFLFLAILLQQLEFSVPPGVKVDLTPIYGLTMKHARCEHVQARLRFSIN
CYP2C9, sequence (P11712 whole entry): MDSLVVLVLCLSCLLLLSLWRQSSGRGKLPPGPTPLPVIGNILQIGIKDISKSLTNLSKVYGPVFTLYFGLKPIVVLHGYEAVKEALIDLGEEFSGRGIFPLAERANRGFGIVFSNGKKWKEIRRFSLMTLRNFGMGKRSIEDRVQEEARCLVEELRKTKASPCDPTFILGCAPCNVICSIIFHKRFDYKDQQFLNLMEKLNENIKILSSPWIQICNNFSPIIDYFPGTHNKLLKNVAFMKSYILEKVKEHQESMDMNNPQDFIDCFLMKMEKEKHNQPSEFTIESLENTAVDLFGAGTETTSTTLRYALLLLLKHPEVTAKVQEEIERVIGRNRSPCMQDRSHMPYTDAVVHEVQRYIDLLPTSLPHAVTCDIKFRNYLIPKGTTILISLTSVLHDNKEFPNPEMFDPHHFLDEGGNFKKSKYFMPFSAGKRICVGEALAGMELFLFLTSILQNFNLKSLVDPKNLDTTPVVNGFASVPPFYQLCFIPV

Consider `O=C1COc2cc(NCc3cccc(NC(=O)c4ccccc4Cl)c3)c(Cl)cc2N1` [Compound 7, 2-chloro-N-(3-{[(6-chloro-3-oxo-3,4-dihydro-2H-1,4-benzoxazin-7-yl)amino]methyl}phenyl)benzamide], for which the “inhibitory potency of CYP17A1, level in words” value (“inhibitory potency of CYP17A1” for short) on CYP17A1 was “micromolar levels”. For the same molecule, the “IC50 values against CYP19A1, potency level in words” value (from here on “IC50 values against CYP19A1”) at CYP19A1 is given as “sub-micromolar inhibitory potency levels”. Also, the “Soluble in DMSO” value in “Solubility in DMSO” was “Yes”. Further, the safety profile entry in [1] is reported as “excellent safety profiles”. In the data set on CYP17A1 and CYP19A1, the “Dual Inhibitor classification” value was “Dual Inhibitors”.

`O=C1COc2cc(NCc3cccc(C(=O)Nc4cccnc4)c3)ccc2N1` [Compound 10, 3-{[(3-oxo-3,4-dihydro-2H-1,4-benzoxazin-7-yl)amino]methyl}-N-(pyridin-3-yl)benzamide]: the “inhibitory potency of CYP17A1” value against CYP17A1 is listed as “micromolar levels”. In addition, the “IC50 values against CYP19A1” value against CYP19A1 was “sub-micromolar inhibitory potency levels”. Further, in the data set “Solubility in DMSO”, the “Soluble in DMSO” value is “Yes”. In addition, the safety profile entry in data set [1] was “excellent safety profiles”. Also, in the data set with CYP17A1 and CYP19A1, the “Dual Inhibitor classification” value is “Dual Inhibitors”.

For `O=C1COc2cc(NC(=O)c3cc(NC(=O)c4cn[nH]c4)ccc3Cl)ccc2N1` [Compound 12, N-{4-chloro-3-[(3-oxo-3,4-dihydro-2H-1,4-benzoxazin-7-yl)carbamoyl]phenyl}-1H-pyrazole-4-carboxamide], the half-maximal inhibitory concentration (IC50) on CYP17A1 is greater than 50 µM; at CYP19A1 (25 μM MFC, 10 min, 37° C.), 0.06 µM; against CYP1A2, greater than 50 µM; on CYP2C9, 22.5 µM; against CYP2C19 it was greater than 50 µM; at CYP2D6, greater than 50 µM. Also, inhibition against CYP3A4 was half-maximal at 18.3 µM (IC50). At CYP19A1, the “IC50 values against CYP19A1” value is “sub-micromolar inhibitory potency levels”. Besides, the “Soluble in DMSO” value in the data set “Solubility in DMSO” is reported as “Yes”. Besides, the safety profile entry in data set [1] is reported as “excellent safety profiles”. The “Dual Inhibitor classification” value in the data set with CYP17A1 and CYP19A1 was “Dual Inhibitors”.

`Cc1cccc(C(=O)OCCOc2ccc(S(N)(=O)=O)cc2)c1N` [Compound 4, 2-(4-sulfamoylphenoxy) ethyl 2-amino-3-methylbenzoate] registered a half-inhibitory concentration (IC50) on CYP2D6 of 3.3 µM. In “Solubility in DMSO”, the “Soluble in DMSO” value is “Yes”. Besides, the safety profile result in data set [1] is reported as “reasonably good safety profiles”. Besides, in [2], the “inhibition of various CYP450 isoforms (drug-drug interaction)” value is “inhibit various CYP450 isoforms”.

In the case of `O=C1COc2cc(NCc3cccc(C(=O)Nc4cccnc4)c3)c(Cl)cc2N1` [Compound 13, 3-{[(6-chloro-3-oxo-3,4-dihydro-2H-1,4-benzoxazin-7-yl)amino]methyl}-N-(pyridin-3-yl)benzamide], on CYP19A1, the “IC50 values against CYP19A1” value was “sub-micromolar inhibitory potency levels”. In addition, the “Soluble in DMSO” value in the data set “Solubility in DMSO” was “Yes”. In addition, the safety profile result in data set [1] is recorded as “reasonably good safety profiles”. In data set [2], the “inhibition of various CYP450 isoforms (drug-drug interaction)” value is on record as “inhibit various CYP450 isoforms”. The “Dual Inhibitor classification” value in the data set on CYP17A1 and CYP19A1 is listed as “Dual Inhibitors”.

`CCCC(=O)Nc1ccc(C(=O)C(C)OC(=O)c2n[nH]c3ccccc23)cc1` (racemic) [Compound 6, 1-(4-butanamidophenyl)-1-oxopropan-2-yl-1H-indazole-3-carboxylate]: the concentration for half-maximal inhibition (IC50) was greater than 50 µM against CYP17A1; greater than 50 µM on CYP1A2; 2.5 µM against CYP2C9; 41.2 µM against CYP2C19; greater than 50 µM on CYP2D6; greater than 50 µM at CYP3A4. Moreover, the “inhibitory potency of CYP17A1” value at CYP17A1 is “micromolar levels”. Moreover, in the data set “Solubility in DMSO”, the “Soluble in DMSO” value is on record as “Yes”. The safety profile entry in [1] is recorded as “excellent safety profiles”.

The values are drawn from patent publication US11548860B2, “Pharmacophores, compounds and methods having application in the treatment of cancer through inhibition of CYP17A1 and CYP19A1” (MANGOSUTHU UNIVERSITY OF TECHNOLOGY, priority 2015, dated 2023).
